What all share (assay type): cell-based
For one assay, the target named is T1, human NaV1.6 (hNaV1.6) (Homo sapiens, UniProt Q9UQD0).
T1 construct: expressed in transfected cells; host or cells: HEK-293
In words: Late sodium current (INaL) inhibition, PatchXpress electrophysiology, hNaV1.6. To be noted: 1 μM; HEK-293 cells expressing hNaV1.6; late current evoked by 300 nM ATX-II. The method, then:
HEK-293 cells expressing recombinant, human NaV1.6 (hNaV1.6) were grown in DMEM/high-glucose Dulbecco's modified, 10% FBS, 2 mM sodium pyruvate, 10 mM HEPES and 400 μg/mL G418. Cells were grown to 50%-80% confluency prior to harvesting. […] The onboard liquid handling facility of the PatchXpress was used for dispensing cells and applying test compounds. […] INaL was evoked by depolarizing pulses to 0 mV for 200 ms from a non-inactivating holding potential (e.g., −120 mV) at a frequency of 0.1 Hz. INaL amplitude and stability were determined by analyzing the mean current amplitude over the final 20 ms of the test pulse. […] Percent steady-state inhibition of INaL was calculated as: [(INaL_compound)/(INaL_control)]*100, where INaL_compound and INaL_control represent INaL recorded in the presence or absence of compound, respectively.

A further assay has as its target T2, hNaV1.1-WT (Homo sapiens, UniProt P35498).
T2 construct: expressed in transfected cells; host or cells: HEK-293
The assay can be described thus: Voltage step activated (peak) sodium current, PatchXpress, hNaV1.1-WT. The following applies: HEK293, HEK-293, steps to 0 mV from half-inactivation holding potential, read-out: hNav1.1 Peak INa (percent inhibition). The method, then:
(§1) Functional characterization of exemplary compounds to modulate INa expressed by various human isoforms and disease-causing mutant voltage-gated sodium channels was accomplished using the PatchXpress high throughput electrophysiology platform (Molecular Devices, Sunnyvale, CA). HEK-293 cells expressing a recombinant, human NaV1.X sodium channel (either hNaV1.6-WT, hNaV1.6-R223G, hNaV1.6-N984K, hNaV1.6-N1768D, hNaV1.1-WT, hNaV1.2-WT, hNaV1.5-WT, hNaV1.7-WT, or hNaV1.8-WT) were grown in DMEM/high-glucose Dulbecco's modified, 10% FBS, 2 mM sodium pyruvate, 10 mM HEPES and 400 μg/mL G418. Cells were grown to 50%-80% confluency prior to harvesting. Trypsinized cells were washed, allowed to recover for 1 hour and then resuspended in extracellular recording solution at a concentration of 1×10^6 cells/ml. The onboard liquid handling facility of the PatchXpress was used for dispensing cells and applying test compounds. INa amplitude and stability were determined by analyzing the peak current amplitude.
(§2) Peak INa was evoked by depolarizing steps to 0 mV for 20 ms from a holding potential which evoked half-inactivation (e.g., −60 mV) at a frequency of 0.1 Hz. The voltage of half-inactivation was determined for each cell using a 5 sec prepulse to membrane potentials between −120 mV and −20 mV followed immediately by a voltage step to a fully activating membrane voltage (e.g., 0 mV). Following steady state block with exemplary compounds (e.g., as described herein), the degree of inhibition was measured using the average of three consecutive voltage steps. Percent steady-state inhibition of INa was calculated as: [(INa_compound)/(INa_control)]*100, where INa_compound and INa_control represent INa recorded in the presence or absence of compound, respectively.
(§3) In this table, “A” indicates inhibition between less than 0% to 50% and “B” indicates inhibition of greater than 50% and N/A indicates the compound was not tested.

The target of another assay is T3, hNaV1.2-WT (Homo sapiens, UniProt Q99250).
T3 construct: expressed in transfected cells; host or cells: HEK-293
T3 sequence (Q99250 whole entry): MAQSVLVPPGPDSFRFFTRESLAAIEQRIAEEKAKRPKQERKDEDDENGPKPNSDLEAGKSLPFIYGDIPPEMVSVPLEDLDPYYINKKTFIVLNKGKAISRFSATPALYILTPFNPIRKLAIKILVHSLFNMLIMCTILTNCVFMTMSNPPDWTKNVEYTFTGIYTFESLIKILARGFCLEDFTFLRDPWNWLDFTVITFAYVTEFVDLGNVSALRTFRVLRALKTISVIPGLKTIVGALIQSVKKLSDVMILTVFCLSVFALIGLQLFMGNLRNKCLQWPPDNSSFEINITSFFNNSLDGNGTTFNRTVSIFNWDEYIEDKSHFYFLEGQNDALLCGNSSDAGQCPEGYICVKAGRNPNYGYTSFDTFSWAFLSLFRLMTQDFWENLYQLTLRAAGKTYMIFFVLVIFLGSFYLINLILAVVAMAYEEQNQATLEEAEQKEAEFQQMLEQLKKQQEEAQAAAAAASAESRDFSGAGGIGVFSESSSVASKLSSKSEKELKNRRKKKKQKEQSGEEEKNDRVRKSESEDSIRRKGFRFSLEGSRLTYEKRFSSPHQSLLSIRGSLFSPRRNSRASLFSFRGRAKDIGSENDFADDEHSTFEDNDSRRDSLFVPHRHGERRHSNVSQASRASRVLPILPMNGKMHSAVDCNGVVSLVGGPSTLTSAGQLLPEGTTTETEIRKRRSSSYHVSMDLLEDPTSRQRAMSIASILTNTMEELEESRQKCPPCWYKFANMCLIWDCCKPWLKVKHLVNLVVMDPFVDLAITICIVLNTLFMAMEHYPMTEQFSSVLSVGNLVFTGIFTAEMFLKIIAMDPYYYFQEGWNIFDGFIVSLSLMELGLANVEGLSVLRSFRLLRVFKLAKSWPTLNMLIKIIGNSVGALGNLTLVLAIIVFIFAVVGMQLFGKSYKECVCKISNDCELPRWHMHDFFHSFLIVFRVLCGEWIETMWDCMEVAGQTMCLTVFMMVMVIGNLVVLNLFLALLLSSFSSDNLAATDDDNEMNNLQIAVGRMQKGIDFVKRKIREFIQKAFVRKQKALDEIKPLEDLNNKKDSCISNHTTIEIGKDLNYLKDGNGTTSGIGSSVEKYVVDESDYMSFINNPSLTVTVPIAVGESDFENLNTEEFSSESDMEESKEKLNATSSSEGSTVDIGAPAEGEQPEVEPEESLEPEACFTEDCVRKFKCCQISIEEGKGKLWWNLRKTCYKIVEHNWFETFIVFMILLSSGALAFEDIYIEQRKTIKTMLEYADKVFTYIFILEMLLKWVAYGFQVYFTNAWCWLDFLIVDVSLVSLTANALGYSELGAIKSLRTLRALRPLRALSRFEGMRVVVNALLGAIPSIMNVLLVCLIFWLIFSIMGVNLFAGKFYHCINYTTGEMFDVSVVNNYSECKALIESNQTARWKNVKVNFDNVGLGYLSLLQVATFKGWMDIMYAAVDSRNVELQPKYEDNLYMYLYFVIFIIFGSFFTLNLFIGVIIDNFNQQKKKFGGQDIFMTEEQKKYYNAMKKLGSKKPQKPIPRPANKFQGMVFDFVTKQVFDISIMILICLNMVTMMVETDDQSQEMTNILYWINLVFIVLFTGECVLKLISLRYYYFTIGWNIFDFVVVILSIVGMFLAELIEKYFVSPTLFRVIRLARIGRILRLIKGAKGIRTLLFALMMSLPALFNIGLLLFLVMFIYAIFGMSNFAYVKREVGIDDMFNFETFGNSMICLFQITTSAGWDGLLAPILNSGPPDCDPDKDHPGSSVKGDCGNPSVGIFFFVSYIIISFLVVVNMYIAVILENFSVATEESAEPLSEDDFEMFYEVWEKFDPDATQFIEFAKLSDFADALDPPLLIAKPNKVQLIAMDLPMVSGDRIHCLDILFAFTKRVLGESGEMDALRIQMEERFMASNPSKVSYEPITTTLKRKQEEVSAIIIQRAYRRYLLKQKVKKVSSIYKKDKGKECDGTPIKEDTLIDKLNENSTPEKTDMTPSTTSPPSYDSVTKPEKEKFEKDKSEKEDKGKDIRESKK
In words: Voltage step activated (peak) sodium current, PatchXpress, hNaV1.2-WT. To be noted: HEK293, HEK-293, steps to 0 mV from half-inactivation holding potential, read-out: hNav1.2 Peak INa (percent inhibition). The method, then:
as §1, §2, §3

T1 sequence (Q9UQD0 whole entry): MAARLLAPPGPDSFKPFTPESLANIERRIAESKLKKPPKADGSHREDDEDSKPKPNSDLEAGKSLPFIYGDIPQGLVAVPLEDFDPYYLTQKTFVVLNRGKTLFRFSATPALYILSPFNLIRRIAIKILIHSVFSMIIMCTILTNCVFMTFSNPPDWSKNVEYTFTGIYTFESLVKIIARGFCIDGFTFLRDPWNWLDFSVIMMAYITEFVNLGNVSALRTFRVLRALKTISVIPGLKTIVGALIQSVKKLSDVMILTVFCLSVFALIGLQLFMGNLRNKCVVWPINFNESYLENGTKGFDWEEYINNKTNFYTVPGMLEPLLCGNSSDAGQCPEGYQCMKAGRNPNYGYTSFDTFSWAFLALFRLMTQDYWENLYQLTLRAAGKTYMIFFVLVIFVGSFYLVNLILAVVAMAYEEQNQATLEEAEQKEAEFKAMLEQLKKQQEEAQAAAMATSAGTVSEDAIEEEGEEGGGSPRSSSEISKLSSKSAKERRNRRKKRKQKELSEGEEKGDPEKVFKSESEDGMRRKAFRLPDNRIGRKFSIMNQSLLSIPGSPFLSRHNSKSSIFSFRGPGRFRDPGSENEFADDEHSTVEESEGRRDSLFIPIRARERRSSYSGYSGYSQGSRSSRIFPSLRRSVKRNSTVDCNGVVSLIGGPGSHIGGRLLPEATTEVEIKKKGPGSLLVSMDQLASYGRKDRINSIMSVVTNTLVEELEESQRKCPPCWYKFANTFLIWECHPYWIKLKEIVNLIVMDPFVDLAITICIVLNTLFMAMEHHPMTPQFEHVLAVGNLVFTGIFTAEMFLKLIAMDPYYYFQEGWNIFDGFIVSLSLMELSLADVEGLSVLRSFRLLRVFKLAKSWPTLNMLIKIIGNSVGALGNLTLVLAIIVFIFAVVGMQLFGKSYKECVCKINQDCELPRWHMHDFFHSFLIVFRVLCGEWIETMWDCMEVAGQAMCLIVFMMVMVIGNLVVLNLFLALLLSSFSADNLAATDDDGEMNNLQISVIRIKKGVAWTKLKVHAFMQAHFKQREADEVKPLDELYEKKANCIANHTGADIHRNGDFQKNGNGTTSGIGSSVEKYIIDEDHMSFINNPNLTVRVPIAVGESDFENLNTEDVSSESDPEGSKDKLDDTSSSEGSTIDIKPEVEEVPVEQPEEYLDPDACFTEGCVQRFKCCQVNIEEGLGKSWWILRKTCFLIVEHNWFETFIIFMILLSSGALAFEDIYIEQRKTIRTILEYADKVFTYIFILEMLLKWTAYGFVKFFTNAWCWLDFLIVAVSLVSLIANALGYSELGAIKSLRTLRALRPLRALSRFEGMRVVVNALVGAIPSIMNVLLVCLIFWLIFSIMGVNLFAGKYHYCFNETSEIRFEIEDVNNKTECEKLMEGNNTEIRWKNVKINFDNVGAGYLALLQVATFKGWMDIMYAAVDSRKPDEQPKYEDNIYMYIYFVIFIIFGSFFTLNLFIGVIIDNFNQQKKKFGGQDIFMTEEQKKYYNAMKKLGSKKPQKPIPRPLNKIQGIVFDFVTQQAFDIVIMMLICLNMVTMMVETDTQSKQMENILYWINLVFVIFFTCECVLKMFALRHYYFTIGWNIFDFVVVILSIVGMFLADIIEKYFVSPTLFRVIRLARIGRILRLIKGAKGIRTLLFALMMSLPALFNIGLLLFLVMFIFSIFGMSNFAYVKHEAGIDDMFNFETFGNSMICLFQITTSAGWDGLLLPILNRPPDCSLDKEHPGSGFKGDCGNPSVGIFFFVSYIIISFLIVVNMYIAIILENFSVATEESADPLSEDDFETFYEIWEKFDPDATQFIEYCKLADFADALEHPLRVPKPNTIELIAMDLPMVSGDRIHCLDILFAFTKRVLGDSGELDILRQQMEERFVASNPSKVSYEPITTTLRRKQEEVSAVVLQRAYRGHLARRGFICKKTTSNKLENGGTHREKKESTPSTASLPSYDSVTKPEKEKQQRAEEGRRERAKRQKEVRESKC

Turning to `COC(F)(F)c1nnc2cnc(-c3ccc(OC4(C(F)(F)F)CCC4)nc3)cn12` [Compound 57], at human NaV1.6 (hNaV1.6), the “NaV 1.6 Assay Data (percent inhibition of INaL at hNaV1.6)” value is “C (“C” indicates inhibition of greater than 70%)”.

The inhibition is the change of the read-out against control, counted positive when it falls. Consider `COC(F)(F)c1nnc2cnc(-c3ccc(O[C@H](C)C(F)(F)F)nc3)cn12` [Compound 62, 3-[difluoro(methoxy)methyl]-6-[6-[(1R)-2,2,2-trifluoro-1-methyl-ethoxy]-3-pyridyl]-[1,2,4]triazolo[4,3-a]pyrazine], for which the inhibition at 1 µM on hNaV1.1-WT and at hNaV1.2-WT was more than 50% each time.

`CCOC(F)(F)c1nnc2cnc(-c3cnc(OCC(F)(F)F)c(F)c3)cn12` [Compound 10]: the inhibition at 1 µM on hNaV1.1-WT was more than 50%; at hNaV1.2-WT, less than 50%.

As to `COC(F)(F)c1nnc2cnc(-c3cnc(OCC(F)(F)F)c(F)c3)cn12` [Compound 53, 3-[difluoro(methoxy)methyl]-6-[5-fluoro-6-(2,2,2-trifluoroethoxy)-3-pyridyl]-[1,2,4]triazolo[4,3-a]pyrazine], the inhibition at 1 µM at hNaV1.1-WT is more than 50%; at hNaV1.2-WT, less than 50%.

For `COC(F)(F)c1nnc2cnc(-c3cnc(O[C@@H](C)C(F)(F)F)c(F)c3)cn12` [Compound 6B, 3-[difluoro(methoxy)methyl]-6-[5-fluoro-6-[(1S)-2,2,2-trifluoro-1-methyl-ethoxy]-3-pyridyl]-[1,2,4]triazolo[4,3-a]pyrazine], the inhibition at 1 µM at hNaV1.1-WT and on hNaV1.2-WT was more than 50% each time.

For the compound `CCOC(F)(F)c1nnc2ccc(-c3cnc(OCC(F)(F)F)c(F)c3)cn12` [Compound 3, 3-[ethoxy(difluoro)methyl]-6-[5-fluoro-6-(2,2,2-trifluoroethoxy)-3-pyridyl]-[1,2,4]triazolo[4,3-a]pyridine], the inhibition at 1 µM at hNaV1.1-WT is more than 50%.

For the compound `COC(F)(F)c1nnc2cnc(-c3ccc(OC(C)(C)C(F)(F)F)nc3)cn12` [Compound 56, 3-[difluoro(methoxy)methyl]-6-[6-(2,2,2-trifluoro-1,1-dimethyl-ethoxy)-3-pyridyl]-[1,2,4]triazolo[4,3-a]pyrazine], the inhibition at 1 µM on hNaV1.1-WT and at hNaV1.2-WT was more than 50% throughout.

Consider `COC(F)(F)c1nnc2cnc(-c3ccc(O[C@@H](C)C(F)(F)F)nc3)cn12` [Compound 59, 3-[difluoro(methoxy)methyl]-6-[6-[(1S)-2,2,2-trifluoro-1-methyl-ethoxy]-3-pyridyl]-[1,2,4]triazolo[4,3-a]pyrazine], for which the inhibition at 1 µM at hNaV1.1-WT and on hNaV1.2-WT was more than 50% in each case.

Regarding `COC(F)(F)c1nnc2cnc(-c3cnc(OC4(C(F)(F)F)CCC4)c(F)c3)cn12` [Compound 11, 3-[difluoro(methoxy)methyl]-6-[5-fluoro-6-[1-(trifluoromethyl)cyclobutoxy]-3-pyridyl]-[1,2,4]triazolo[4,3-a]pyrazine], on hNaV1.1-WT, the inhibition at 1 µM was more than 50%.

(Values after patent US11866439B2, “Ion channel modulators” (Praxis Precision Medicines, Inc., priority 2018, dated 2024).)
